Laboratory results taken from patent US12410153B2, “Compounds, compositions and methods” (Avalo Therapeutics, Inc., priority 2014, dated 2025).
Where two headings read alike, the source gives them in different places.

Experiment: Repeated once-daily oral dosing with food (Days 1-7) in healthy subjects, PK and PD
Assay type: in vivo, human
Details: for mean plasma concentrations higher vs young age subgroup: Day 7, 2 to 24 hours postdose; for AUC(0-t) / Cmax / Vd/F / Tmax / AUC(0-inf) / half-life: plasma, oral; for Cmax: read-out: Cmax, Mean (SD); for AUC(0-inf): read-out: AUCinf, Mean (SD); for half-life: read-out: t1/2, Mean (SD) (converted)
Procedure: A randomized, double-blind, placebo-controlled, parallel-dose group in-patient study is conducted to investigate the pharmacodynamic (PD) effects of crystalline Form II of Compound (I) in healthy subjects.
The study is designed as a three-part, sequential study. The sequential nature of the study ensures that a range of doses are investigated first in a young, healthy population (Part 1) before proceeding to higher doses in the healthy population and the comparator populations (intermediate age and elderly) (Parts 2 and 3). For the purposes of this study, “young” refers to a subject who is 18 to 45 years of age, “intermediate age” refers to a subject who is 46 to 64 years of age, and “elderly” refers to a subject who is 65 years of age or older.
After a screening period of up to 21 days (Days −23 to −3), 16 healthy, young male and female subjects are randomly assigned to a dose group as shown in Table 9.
Each parallel dose group is balanced for gender (approximately equal number of males and females). The randomized subjects are domiciled from Day −1 through Day 8. On Day −1, the subjects receive placebo tablets in the fed state and undergo ambulatory blood pressure monitoring (ABPM) and safety assessments to establish time-matched baselines. On Days 1-7, the subjects receive the study drug in the fed state and undergo safety, pharmacokinetic (PK) and pharmacodynamics (PD) assessments. On Days 8-11, follow-up PK and safety assessments are performed.
Safety assessments include Clinician-Administered Dissociative States Scale (CADSS), Columbia-Suicide Severity Rating Scale (C-SSRS), concomitant medication, adverse event (AE) and vital sign assessments. In PK assessments, blood samples are taken and analyzed to determine PK parameters such as Cmax, Tmax, AUC0-24, and t1/2. PD assessments include ABPM, plasma brain-derived neurotrophic factor (BDNF) measurements, and Profile of Mood States (POMS) assessments.
After a screening period of up to 21 days (Days −23 to −3), 16 subjects (8 healthy, young male and female subjects, and 8 healthy, intermediate age male and female subjects) are randomly assigned to a dose group as shown in Table 10.
After a screening period of up to 21 days (Days −23 to −3), 16 subjects (8 healthy, young male and female subjects, and 8 healthy, elderly male and female subjects) are randomly assigned to a dose group as shown in Table 11.

[1] = female, human, females, all doses pooled, Day 7
[2] = females, all doses pooled, Day 1
[3] = females, all doses pooled, Day 7
[4] = male, human, males, all doses pooled, Day 7

In the case of `Cc1ccc(COC(=O)N2CC[C@H](CNc3ncccn3)[C@H](F)C2)cc1` [Form II, 4-methylbenzyl (3S, 4R)-3-fluoro-4-[(pyrimidin-2-ylamino)methyl] piperidine-1-carboxylate], the “Dose-Normalized Cmax, Mean (SD)” value (elderly, 12 mg, Day 1) is reported as 29.11 (3.96) ng/mL/mg, the “AUC% extrap, Mean (SD)” value (elderly, 12 mg, Day 7) is reported as 9.70 (5.93) % and the “CL/F, Mean (SD)” value (elderly, 12 mg, Day 7) is reported as 2.79 (0.72) L/h. The “Dose-Normalized AUCinf, Mean (SD)” value (elderly, 12 mg, Day 7) was 858.67 (325.40) h * ng/mL/mg, the “Dose-Normalized Cmax, Mean (SD)” value (elderly, 12 mg, Day 7) was 29.11 (3.96) ng/mL/mg and the “apparent oral clearance lower vs young age group” value (elderly, Day 7) was “approximately 30%”. The “t½ higher vs young age group” value (elderly, Day 7) was ~38%, the “mean plasma concentrations higher vs young age subgroup” value (elderly) was ~40% and the AUC(0-t) (female, human, females, all doses pooled, Day 1, read-out: AUC0-24, Mean (SD)) was 2340 ng·h/mL. For the same compound, the AUC(0-t) (female, human, females, all doses pooled, Day 1, read-out: AUClast, Mean (SD)) was 2310 ng·h/mL, the Cmax (female, human, females, all doses pooled, Day 1) was 270 ng/mL and the Vd/F (female, human, females, all doses pooled, Day 1, read-out: Vz/F, Mean (SD)) was 182 L. The Tmax (female, human, females, all doses pooled, Day 1, read-out: tmax, Mean (SD)) was 2.26 h, the Tmax (female, human, females, all doses pooled, Day 1, read-out: tmax, Median) was 2 h and the AUC(0-t) (female, human, females, all doses pooled, Day 7, read-out: AUC0-24, Mean (SD)) was 4470 ng·h/mL. The AUC(0-inf) [1] was 9320 ng·h/mL, the AUC(0-t) (female, human, females, all doses pooled, Day 7, read-out: AUClast, Mean (SD)) was 8580 ng·h/mL and the Cmax [1] was 373 ng/mL. It also gave a Vd/F (female, human, females, all doses pooled, Day 7, read-out: Vss/F, Mean (SD)) of 105 L, a half-life [1] of 23.8 h and a Tmax (female, human, females, all doses pooled, Day 7, read-out: tmax, Mean (SD)) of 2.31 h. For the same compound, the Tmax (female, human, females, all doses pooled, Day 7, read-out: tmax, Median) was 2 h, the “Day 7/Day 1 Cmax Ratio, Mean (SD)” value (females, all doses pooled) was 1.38 (0.27) and the “Observed Accumulation Index, Mean (SD)” value (females, all doses pooled) was 1.88 (0.37). For the same compound, the “Steady State Accumulation Index, Mean (SD)” value (females, all doses pooled) was 1.10 (0.15), the “CL/F, Mean (SD)” value [2] was 5.79 (0.84) L/h and the “Dose-Normalized Cmax, Mean (SD)” value [2] was 20.59 (2.86) ng/mL/mg. The “AUC% extrap, Mean (SD)” value [3] was 6.76 (4.26) %, the “CL/F, Mean (SD)” value [3] was 3.19 (0.84) L/h and the “Dose-Normalized AUCinf, Mean (SD)” value [3] was 698.59 (282.19) h * ng/mL/mg. The “Dose-Normalized Cmax, Mean (SD)” value [3] was 27.98 (5.43) ng/mL/mg, the “effects on average nighttime SBP and DBP” value (human, in vivo) was “smaller and less consistently observed” and the “Day 7/Day 1 Cmax Ratio, Mean (SD)” value (intermediate age, 12 mg) was 1.41 (0.17). The “Observed Accumulation Index, Mean (SD)” value (intermediate age, 12 mg) was 1.92 (0.25), the “Steady State Accumulation Index, Mean (SD)” value (intermediate age, 12 mg) was 1.13 (0.16) and the “CL/F, Mean (SD)” value (intermediate age, 12 mg, Day 1) was 6.22 (1.34) L/h. The “Dose-Normalized Cmax, Mean (SD)” value (intermediate age, 12 mg, Day 1) was 21.42 (4.22) ng/mL/mg, the “AUC% extrap, Mean (SD)” value (intermediate age, 12 mg, Day 7) was 7.51 (1.85) % and the “CL/F, Mean (SD)” value (intermediate age, 12 mg, Day 7) was 3.27 (0.80) L/h. The “Dose-Normalized AUCinf, Mean (SD)” value (intermediate age, 12 mg, Day 7) was 675.34 (189.17) h * ng/mL/mg, the “Dose-Normalized Cmax, Mean (SD)” value (intermediate age, 12 mg, Day 7) was 30.03 (5.40) ng/mL/mg and the “apparent oral clearance lower vs young age group” value (intermediate age, Day 7) was “approximately 18%”. The “t½ higher vs young age group” value (intermediate age, Day 7) was “approximately 27%”, the “mean plasma concentrations higher vs young age subgroup” value (intermediate age) was “approximately 20%” and the AUC(0-t) (male, human, males, all doses pooled, Day 1, read-out: AUC0-24, Mean (SD)) was 2210 ng·h/mL. It also gave an AUC(0-t) (male, human, males, all doses pooled, Day 1, read-out: AUClast, Mean (SD)) of 2190 ng·h/mL, a Cmax (male, human, males, all doses pooled, Day 1) of 262 ng/mL and a Vd/F (male, human, males, all doses pooled, Day 1, read-out: Vz/F, Mean (SD)) of 147 L. For the same compound, the Tmax (male, human, males, all doses pooled, Day 1, read-out: tmax, Mean (SD)) was 2.12 h, the Tmax (male, human, males, all doses pooled, Day 1, read-out: tmax, Median) was 2 h and the AUC(0-t) (male, human, males, all doses pooled, Day 7, read-out: AUC0-24, Mean (SD)) was 3750 ng·h/mL. For the same compound, the AUC(0-inf) [4] was 6770 ng·h/mL, the AUC(0-t) (male, human, males, all doses pooled, Day 7, read-out: AUClast, Mean (SD)) was 6350 ng·h/mL and the Cmax [4] was 355 ng/mL. The Vd/F (male, human, males, all doses pooled, Day 7, read-out: Vss/F, Mean (SD)) was 108 L, the half-life [4] was 20.6 h and the Tmax (male, human, males, all doses pooled, Day 7, read-out: tmax, Mean (SD)) was 1.88 h. For the same compound, the Tmax (male, human, males, all doses pooled, Day 7, read-out: tmax, Median) was 1.75 h, the “Day 7/Day 1 Cmax Ratio, Mean (SD)” value (males, all doses pooled) was 1.36 (0.22) and the “Observed Accumulation Index, Mean (SD)” value (males, all doses pooled) was 1.72 (0.28). For the same compound, the “Steady State Accumulation Index, Mean (SD)” value (males, all doses pooled) was 1.15 (0.16), the “CL/F, Mean (SD)” value (males, all doses pooled, Day 1) was 6.19 (1.15) L/h and the “Dose-Normalized Cmax, Mean (SD)” value (males, all doses pooled, Day 1) was 19.78 (3.09) ng/mL/mg. For the same compound, the “AUC% extrap, Mean (SD)” value (males, all doses pooled, Day 7) was 6.06 (5.38) %, the “CL/F, Mean (SD)” value (males, all doses pooled, Day 7) was 3.74 (0.83) L/h and the “Dose-Normalized AUCinf, Mean (SD)” value (males, all doses pooled, Day 7) was 512.15 (188.98) h * ng/mL/mg. For the same compound, the “Dose-Normalized Cmax, Mean (SD)” value (males, all doses pooled, Day 7) was 26.21 (3.94) ng/mL/mg, the “steady-state predose plasma concentrations achieved by” value (repeated daily doses) was ≤ 5 study day and the “steady-state accumulation index, on average” value (seven days of daily dosing) was 1.1. The “Observed Accumulation Index, Mean (SD)” value (young subjects, 8 mg) was 1.58 (0.19), the “CL/F, Mean (SD)” value (young subjects, 8 mg, Day 1) was 5.36 (0.48) L/h and the “Dose-Normalized Cmax, Mean (SD)” value (young subjects, 8 mg, Day 1) was 22.42 (2.27) ng/mL/mg. For the same compound, the “AUC% extrap, Mean (SD)” value (young subjects, 8 mg, Day 7) was 8.61 (8.27) %, the “CL/F, Mean (SD)” value (young subjects, 8 mg, Day 7) was 3.37 (0.37) L/h and the “Dose-Normalized AUCinf, Mean (SD)” value (young subjects, 8 mg, Day 7) was 513.73 (174.76) h * ng/mL/mg. The “Dose-Normalized Cmax, Mean (SD)” value (young subjects, 8 mg, Day 7) was 28.00 (3.75) ng/mL/mg, the “Day 7/Day 1 Cmax Ratio, Mean (SD)” value (young subjects, 12 mg) was 1.15 (0.18) and the “Observed Accumulation Index, Mean (SD)” value (young subjects, 12 mg) was 1.65 (0.31). The “Steady State Accumulation Index, Mean (SD)” value (young subjects, 12 mg) was 1.01 (0.08), the “CL/F, Mean (SD)” value (young subjects, 12 mg, Day 1) was 6.46 (0.18) L/h and the “Dose-Normalized Cmax, Mean (SD)” value (young subjects, 12 mg, Day 1) was 19.92 (2.78) ng/mL/mg. For the same compound, the “AUC% extrap, Mean (SD)” value (young subjects, 12 mg, Day 7) was 4.77 (2.72) %, the “CL/F, Mean (SD)” value (young subjects, 12 mg, Day 7) was 4.00 (0.60) L/h and the “Dose-Normalized AUCinf, Mean (SD)” value (young subjects, 12 mg, Day 7) was 494.43 (177.79) h * ng/mL/mg. For the same compound, the “Dose-Normalized Cmax, Mean (SD)” value (young subjects, 12 mg, Day 7) was 22.79 (3.67) ng/mL/mg, the “Observed Accumulation Index, Mean (SD)” value (young subjects, 16 mg) was 1.70 (0.54) and the “CL/F, Mean (SD)” value (young subjects, 16 mg, Day 1) was 6.12 (0.90) L/h. For the same compound, the “Dose-Normalized Cmax, Mean (SD)” value (young subjects, 16 mg, Day 1) was 19.11 (1.97) ng/mL/mg, the “AUC% extrap, Mean (SD)” value (young subjects, 16 mg, Day 7) was 5.38 (5.13) % and the “CL/F, Mean (SD)” value (young subjects, 16 mg, Day 7) was 4.01 (1.21) L/h. For the same compound, the “Dose-Normalized AUCinf, Mean (SD)” value (young subjects, 16 mg, Day 7) was 501.47 (311.57) h * ng/mL/mg, the “Dose-Normalized Cmax, Mean (SD)” value (young subjects, 16 mg, Day 7) was 25.80 (4.07) ng/mL/mg and the “Observed Accumulation Index, Mean (SD)” value (young subjects, 20 mg) was 1.71 (0.22). The “CL/F, Mean (SD)” value (young subjects, 20 mg, Day 1) was 5.90 (1.31) L/h, the “Dose-Normalized Cmax, Mean (SD)” value (young subjects, 20 mg, Day 1) was 19.18 (2.87) ng/mL/mg and the “AUC% extrap, Mean (SD)” value (young subjects, 20 mg, Day 7) was 2.88 (1.30) %. The “CL/F, Mean (SD)” value (young subjects, 20 mg, Day 7) was 3.51 (0.97) L/h, the “Dose-Normalized AUCinf, Mean (SD)” value (young subjects, 20 mg, Day 7) was 523.40 (175.33) h * ng/mL/mg and the “Dose-Normalized Cmax, Mean (SD)” value (young subjects, 20 mg, Day 7) was 26.72 (4.88) ng/mL/mg.
